The supplement of paper PMC10307832

How the values were obtained:
Test in all cases: relative viability (nuclei count vs DMSO), 5 days (fraction); higher = more cells survive
[1] = compound: C#Cc1cccc(Nc2ncnc3cc(OC)c(OCCCCCCC(=O)NO)cc23)c1 [CUDC-101]
In short: (§1)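 Viability was defined as treated-well nuclei divided by vehicle-well nuclei, with the median taken over replicate plates. Cells from lung cancer lines sat overnight at 37 °C in 1536-well plates, received five √10-spaced library-drug doses by pinning on vehicle-anchored plates, and grew 5 days without medium change before one-step fixation, permeabilisation and Hoechst staining, 4× imaging and MetaXpress nuclear counts. Only plates with control CV under 25% and at least one doubling were kept.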

[2] = compound: COc1cc2/c(=N/c3ccc(Br)cc3F)nc[nH]c2cc1OCC1CCN(C)CC1 [Vandetanib]
In short: as §1

[3] = compound: COc1cc(N2CCC(N3CCN(C)CC3)CC2)ccc1Nc1ncc(Cl)c(Nc2ccccc2S(=O)(=O)C(C)C)n1 [NVP-TAE684] + CC1(C)CCC(c2ccc(Cl)cc2)=C(CN2CCN(c3ccc(C(=O)NS(=O)(=O)c4ccc(N[C@H](CCN5CCOCC5)CSc5ccccc5)c(S(=O)(=O)C(F)(F)F)c4)cc3)CC2)C1 [Navitoclax] (partner 0.5 µM)
In short: (§2)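 Relative viability was taken as the ratio of nuclei in treated wells to nuclei in vehicle wells. Lung cancer cell lines in 1536-well plates received compounds by pin tool one day after seeding, either one drug alone or a fixed anchor-drug dose plus five library-drug doses (not always all listed) in √10 steps. Nuclei were counted on 4× images after 5 days of treatment, and values are medians of duplicate plates.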

[4] = compound: COc1cc2/c(=N/c3ccc(Br)cc3F)nc[nH]c2cc1OCC1CCN(C)CC1 [Vandetanib] + Nc1nc2[nH]cc(CCc3ccc(C(=O)N[C@@H](CCC(=O)O)C(=O)O)cc3)c2c(=O)[nH]1 [Pemetrexed] (partner 0.2 µM)
In short: as §2

Row | Cell Line | relative viability ([1]; 0.01 µM) | relative viability ([1]; 0.03162 µM) | relative viability ([1]; 0.1 µM) | relative viability ([1]; 0.3162 µM) | relative viability ([1]; 1 µM) | relative viability ([2]; 0.02 µM) | relative viability ([2]; 0.06325 µM) | relative viability ([2]; 0.2 µM) | relative viability ([2]; 0.6325 µM) | relative viability ([2]; 2 µM) | relative viability ([3]; first compound 0.2 µM) | relative viability ([3]; first compound 0.6325 µM) | relative viability ([3]; first compound 2 µM) | relative viability ([4]; first compound 0.02 µM) | relative viability ([4]; first compound 0.06325 µM) | relative viability ([4]; first compound 0.2 µM) | relative viability ([4]; first compound 0.6325 µM) | relative viability ([4]; first compound 2 µM)
1 | H3255 | 1 | 0.912 | 0.454 | 0.658 | 0.273 | 0.998 | 0.934 | 0.845 | 0.573 | 0.355 | 0.6 | 0.417 | 0.382 | 0.566 | 0.482 | 0.49 | 0.444 | 0.357
2 | HARA | 1.01 | 0.942 | 0.774 | 0.861 | 0.39 | 1.13 | 0.939 | 0.914 | 0.899 | 0.942 | 1.02 | – | 0.701 | 0.246 | 0.239 | 0.243 | 0.203 | 0.213
3 | HCC-15 | 0.969 | 0.989 | 1.01 | 1.11 | 0.897 | 1.01 | 0.919 | 0.982 | 1 | 1.03 | 0.72 | 0.681 | 0.375 | 0.229 | 0.226 | 0.235 | 0.238 | 0.225
4 | HCC-44 | 0.858 | 1.03 | 1.02 | 0.951 | 0.968 | 0.939 | 0.965 | 1.02 | 0.998 | 0.966 | – | 1.02 | 0.453 | 0.606 | 0.699 | 0.684 | 0.657 | 0.635
5 | HCC-78 | 1.01 | 0.918 | 0.954 | 0.809 | 0.416 | 1.02 | 0.841 | 0.958 | 0.974 | 0.853 | 0.433 | 0.535 | 0.282 | 0.88 | 0.889 | 0.893 | 0.873 | 0.901
6 | HCC-366 | 1.03 | 0.997 | 1.01 | 1.03 | 0.931 | 0.966 | 1.01 | 1.03 | 1.01 | 1.02 | 1.18 | 0.999 | 1.02 | 0.128 | 0.149 | 0.155 | 0.17 | 0.176
7 | HCC-827 | 1.08 | 0.709 | 0.247 | 0.198 | 0.192 | 1.04 | 1.02 | 1.01 | 0.31 | 0.186 | 0.935 | 0.982 | 0.978 | 0.245 | 0.241 | 0.263 | 0.173 | 0.171
8 | HOP-62 | 0.971 | 1.07 | 1.06 | 1 | 0.941 | 0.947 | 1.02 | 1.01 | 1.02 | 1.04 | 1.23 | 1.13 | 1.1 | 0.325 | 0.358 | 0.438 | 0.299 | 0.291
